The target of the experiment is T1, hFXR (Homo sapiens, UniProt Q96RI1).
T1 construct: expressed in transfected cells; host or cells: CV-1 cells
T1 sequence (Q96RI1 1-486): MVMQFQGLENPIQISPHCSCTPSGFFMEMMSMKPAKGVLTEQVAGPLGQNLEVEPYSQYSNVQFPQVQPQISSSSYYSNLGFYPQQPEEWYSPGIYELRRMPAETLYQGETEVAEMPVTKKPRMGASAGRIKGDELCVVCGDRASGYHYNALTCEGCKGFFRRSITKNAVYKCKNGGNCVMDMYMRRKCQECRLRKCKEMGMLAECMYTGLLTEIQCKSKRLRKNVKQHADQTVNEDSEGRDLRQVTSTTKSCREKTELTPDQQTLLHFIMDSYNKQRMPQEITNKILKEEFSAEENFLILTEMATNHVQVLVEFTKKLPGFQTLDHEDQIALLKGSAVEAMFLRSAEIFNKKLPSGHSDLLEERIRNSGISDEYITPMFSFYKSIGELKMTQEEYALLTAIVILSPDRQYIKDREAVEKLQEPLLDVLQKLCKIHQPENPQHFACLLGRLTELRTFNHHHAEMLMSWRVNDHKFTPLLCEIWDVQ
T1 sequence (P19793 1-462 partner): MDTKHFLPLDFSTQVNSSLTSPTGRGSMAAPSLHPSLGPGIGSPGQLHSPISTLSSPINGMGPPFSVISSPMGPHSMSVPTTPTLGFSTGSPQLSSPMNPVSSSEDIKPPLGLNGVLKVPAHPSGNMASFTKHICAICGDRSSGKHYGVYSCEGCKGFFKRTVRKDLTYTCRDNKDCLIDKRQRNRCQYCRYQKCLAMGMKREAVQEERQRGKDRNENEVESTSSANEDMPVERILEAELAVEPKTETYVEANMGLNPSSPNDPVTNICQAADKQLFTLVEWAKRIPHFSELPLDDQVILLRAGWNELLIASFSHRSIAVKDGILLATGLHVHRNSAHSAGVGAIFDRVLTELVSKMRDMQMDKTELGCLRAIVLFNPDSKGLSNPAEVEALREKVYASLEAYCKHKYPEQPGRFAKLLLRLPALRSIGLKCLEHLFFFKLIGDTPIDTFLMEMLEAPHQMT
Kind of experiment: In Vitro FXR Assay (TK): TK-ECRE-luc reporter in transfected CV-1 cells. Type of experiment: cell-based. Particulars: 18 hrs incubation, luminescence. The gist of the method:
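Luciferase read-out from lysed CV-1 cells carrying transfected hFXR, hRXR, TK-ECRE-luc and pCMX-YFP. Test compounds, DMSO serial dilutions, were incubated with the cells for 18 h before lysis. Cells grew in charcoal-stripped serum medium.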
Compound `COc1ccc(C23CCC(CN(c4cc(-c5cnn(C(C)C)c5)ncn4)C(=O)[C@H]4CC[C@H](OC(=O)NCCCO)CC4)(CC2)CC3)cc1C` [Compound 23.19, 4-((6-(1-Isopropyl-1H-pyrazol-4-yl)pyrimidin-4-yl)((4-(4-methoxy-3-methylphenyl)bi-cyclo[2.2.2]octan-1-yl)methyl)carbamoyl)(trans-cyclohexyl) (3-hydroxypropyl)carbamate] had an EC50 of at most 50 nM.

`COc1ccc(C23CCC(CN(c4cc(-c5cnn(C(C)C)c5)ncn4)C(=O)[C@H]4CC[C@H](OC(=O)N5CC(CO)C5)CC4)(CC2)CC3)cc1C` [Compound 23.20, 4-((6-(1-Isopropyl-1H-pyrazol-4-yl)pyrimidin-4-yl)((4-(4-methoxy-3-methylphenyl)bi-cyclo[2.2.2]octan-1-yl)methyl)carbamoyl)(trans-cyclohexyl) 3-(hydroxymethyl)azetidine-1-carboxylate] registered an EC50 of at most 50 nM.

As to `COc1ccc(C23CCC(CN(c4cc(-c5cnn(C(C)C)c5)ncn4)C(=O)[C@H]4CC[C@H](OC(=O)N5CC(CS(C)(=O)=O)C5)CC4)(CC2)CC3)cc1C` [Compound 23.21, 4-((6-(1-Isopropyl-1H-pyrazol-4-yl)pyrimidin-4-yl)((4-(4-methoxy-3-methylphenyl)bicyclo[2.2.2]octan-1-yl)methyl)carbamoyl)(trans-cyclohexyl) 3-((methylsulfonyl)meth-yl)azetidine-1-carboxylate], the EC50 was at most 50 nM.

Turning to `COc1ccc(C23CCC(CN(c4cc(-c5cnn(C(C)C)c5)ncn4)C(=O)[C@H]4CC[C@H](OC(=O)N5CC(C#N)C5)CC4)(CC2)CC3)cc1C` [Compound 23.22, 4-((6-(1-Isopropyl-1H-pyrazol-4-yl)pyrimidin-4-yl)((4-(4-methoxy-3-methylphenyl)bi-cyclo[2.2.2]octan-1-yl)methyl)carbamoyl(trans-cyclohexyl) 3-cyanoazetidine-1-carboxylate], the 50% effective concentration (EC50) lay in the range of 50 to 1000 nM.

Consider `COc1ccc(C23CCC(CN(c4cc(-c5cnn(C6CCC6)c5)ncn4)C(=O)[C@H]4CC[C@H](OC(=O)N5CC(O)C5)CC4)(CC2)CC3)cc1C` [Compound 23.23, 4-((6-(1-Cyclobutyl-1H-pyrazol-4-yl)pyrimidin-4-yl)((4-(4-methoxy-3-methylphenyl)bicyclo[2.2.2]octan-1-yl)methyl)carbamoyl)(trans-cyclohexyl) 3-hydroxyazetidine-1-carboxylate], for which the EC50 was at most 50 nM.

`COc1ccc(C23CCC(CN(c4cc(-c5cnn(C6CCC6)c5)ncn4)C(=O)[C@H]4CC[C@H](OC(=O)N5CC(CO)C5)CC4)(CC2)CC3)cc1C` [Compound 23.24] had an EC50 of at most 50 nM.

`COc1ccc(C23CCC(CN(c4cccc(-c5cnn(C(C)C)c5)n4)C(=O)[C@H]4CC[C@H](OC(=O)N5CC(O)C5)CC4)(CC2)CC3)cc1C` [Compound 23.25, 4-((6-(1-Isopropyl-1H-pyrazol-4-yl)pyridin-2-yl)((4-(4-methoxy-3-methylphenyl)bicyclo[2.2.2]octan-1-yl)methyl)carba-moyl)cyclohexyl trans-3-hydroxy-azetidine-1-carboxylate] showed an EC50 of at most 50 nM.

Take `COc1ccc(C23CCC(CN(c4cc(-c5cnn(C6(C)CCC6)c5)ccn4)C(=O)[C@H]4CC[C@H](OC(=O)N5CC(O)C5)CC4)(CC2)CC3)cc1C` [Compound 24, 4-(((4-(4-Methoxy-3-methylphenyl)bicyclo[2.2.2]octan-1-yl)methyl)(4-(1-(1-methylcyclobutyl)-1H-pyrazol-4-yl)pyridin-2-yl)carbamoyl)cyclohexyl trans-3-hydroxyazetidine-1-carboxylate]: the EC50 was at most 50 nM.

`COc1ccc(C23CCC(CN(c4cncc(-c5cnn(C(C)C)c5)c4)C(=O)[C@H]4CC[C@H](OC(=O)N5CC(O)C5)CC4)(CC2)CC3)cc1C` [Compound 25, 4-((5-(1-Isopropyl-1H-pyrazol-4-yl)pyridin-3-yl)((4-(4-methoxy-3-methylphenyl)bicyclo[2.2.2]octan-1-yl)methyl)carbamoyl)cyclohexyl trans-3-hydroxyazetidine-1-carboxylate]: the half-maximal effective concentration (EC50) is at most 50 nM.

The compound `COc1ccc([C@H]2CC[C@](F)(CN(c3cccc(-c4cnn(C(C)C)c4)c3)C(=O)[C@H]3CC[C@H](OC(=O)N4CC(O)C4)CC3)CC2)cc1C` [Compound 25.01, 4-((((trans)-1-Fluoro-4-(4-methoxy-3-methylphenyl)cyclohexyl)methyl)(3-(1-isopropyl-1H-pyrazol-4-yl)phenyl)carbamoyl)(trans-cyclohexyl) 3-hydroxyazetidine-1-carboxylate] gave an EC50 of at most 50 nM.

The compound `COc1ccc(C23CCC(CN(c4cccc(-c5cnn(C(C)C)c5)c4)C(=O)[C@H]4CC[C@H](OC(=O)N5CC(O)C5)CC4)(CC2)CC3)cc1C` [Compound 25.02, 4-((3-(1-Isopropyl-1H-pyrazol-4-yl)phenyl)((4-(4-methoxy-3-methylphenyl)bicyclo[2.2.2]octan-1-yl)methyl)carbamoyl)cyclohexyl trans-3-hydroxyazetidine-1-carboxylate] yielded an EC50 of at most 50 nM.

Compound `COc1ccc(C23CCC(CN(c4cc(-c5cnn(C(C)C)c5)ccc4F)C(=O)[C@H]4CC[C@H](OC(=O)N5CC(O)C5)CC4)(CC2)CC3)cc1C` [Compound 25.03, 4-((2-Fluoro-5-(1-isopropyl-1H-pyrazol-4-yl)phenyl)((4-(4-methoxy-3-methylphenyl)bicyclo[2.2.2]octan-1-yl)methyl)carbamoyl)cyclohexyl trans-3-hydroxyazetidine-1-carboxylate] had an EC50 of at most 50 nM.

On to `COc1ccc(C23CCC(CN(c4cccc(-c5cnn(C(C)C)c5)c4F)C(=O)[C@H]4CC[C@H](OC(=O)N5CC(O)C5)CC4)(CC2)CC3)cc1C` [Compound 25.04, 4-((2-Fluoro-3-(1-isopropyl-1H-pyrazol-4-yl)phenyl)((4-(4-methoxy-3-methylphenyl)bicyclo[2.2.2]octan-1-yl)methyl)carbamoyl)cyclohexyl trans-3-hydroxyazetidine-1-carboxylate], for which the EC50 was at most 50 nM.

`COc1ccc(C23CCC(CN(c4cc(-c5cnn(C(C)C)c5)c(F)cn4)C(=O)[C@H]4CC[C@H](OC(=O)NCCCO)CC4)(CC2)CC3)cc1C` [Compound 25.05, 4-((5-Fluoro-4-(1-isopropyl-1H-pyrazol-4-yl)pyridin-2-yl)((4-(4-methoxy-3-methylphenyl)bicyclo[2.2.2]octan-1-yl)methyl)carbamoyl)cyclohexyl trans-(3-hydroxypropyl)carbamate] came in with an EC50 of at most 50 nM.

`COc1ccc(C23CCC(CN(c4cc(-c5cnn(C(C)C)c5)c(F)cn4)C(=O)[C@H]4CC[C@H](OC(=O)N5CC(CO)C5)CC4)(CC2)CC3)cc1C` [Compound 25.06, 4-((5-Fluoro-4-(1-isopropyl-1H-pyrazol-4-yl)pyridin-2-yl)((4-(4-methoxy-3-methylphenyl)bicyclo[2.2.2]octan-1-yl)methyl)carbamoyl)cyclohexyl trans-3-(hydroxymethyl)azetidine-1-carboxylate] gave an EC50 of at most 50 nM.

For `COc1ccc(C23CCC(CN(c4cc(-c5cnn(C(C)C)c5)c(F)cn4)C(=O)[C@H]4CC[C@H](OC(=O)N5CC(CS(C)(=O)=O)C5)CC4)(CC2)CC3)cc1C` [Compound 25.07, 4-((5-Fluoro-4-(1-isopropyl-1H-pyrazol-4-yl)pyridin-2-yl)((4-(4-methoxy-3-methylphenyl)bicyclo[2.2.2]octan-1-yl)methyl)carbamoyl)cyclohexyl trans-3-((methylsulfonyl)methyl)azetidine-1-carboxylate], the EC50 was at most 50 nM.

With `COc1ccc(C23CCC(CN(c4ccc(F)c(-c5cnn(C(C)C)c5)c4)C(=O)[C@H]4CC[C@H](OC(=O)NCCCO)CC4)(CC2)CC3)cc1C` [Compound 25.08, 4-((4-Fluoro-3-(1-isopropyl-1H-pyrazol-4-yl)phenyl)((4-(4-methoxy-3-methylphenyl)bicyclo[2.2.2]octan-1-yl)methyl)carbamoyl)cyclohexyl trans-(3-hydroxypropyl)carbamate], the EC50 was at most 50 nM.

Compound `COc1ccc(C23CCC(CN(c4ccc(F)c(-c5cnn(C(C)C)c5)c4)C(=O)[C@H]4CC[C@H](OC(=O)N5CC(CO)C5)CC4)(CC2)CC3)cc1C` [Compound 25.09, 4-((4-Fluoro-3-(1-isopropyl-1H-pyrazol-4-yl)phenyl)((4-(4-methoxy-3-methylphenyl)bicyclo[2.2.2]octan-1-yl)methyl)carbamoyl)cyclohexyl trans-3-(hydroxymethyl)azetidine-1-carboxylate] registered an EC50 of at most 50 nM.

The EC50 is the midpoint of the concentration-response curve. A low value points to greater potency.
